Measurements reported in the supplement of paper PMC4862054.
“And” between values parts separate entries of the source, which are not always exact repeats. Identical values can stand only once.

System: CAL-51
Assay: normalised viability (% of control), CellTiter-Blue; higher = more viable cells (about 100 = DMSO control)
Conditions: 3 nM; incubation time: 72 h
How it was run: (§1)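 After 72 h on compound-loaded 384-well plates, breast cancer cell lines received 2.5 µl CellTiter-Blue reagent for 2 h at 37 °C. Fluorescence at 560/590 nm was scaled per plate so that vehicle was 100 and a positive kill control was 0. The value stands for normalised viability at a single listed concentration of the series.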

| SMILES | normalised viability [%] |
| --- | --- |
| c1ccc(C2CN3CCSC3=N2)cc1 (stereo unspecified) [Tetramisole] | 85.4 |
| COc1cc(Nc2ncc(F)c(Nc3ccc4c(n3)NC(=O)C(C)(C)O4)n2)cc(OC)c1OC [R406] | 107 |
| O=P(O)(NCCCl)NCCCl [Ifosfamide mustard] | 106 |

Same assay, conditions: 10 nM; incubation time: 72 h

| SMILES | normalised viability [%] |
| --- | --- |
| CC(C)(C)c1cc(NC(=O)Nc2ccc(-c3cn4c(n3)sc3cc(OCCN5CCOCC5)ccc34)cc2)no1 [Quizartinib] | 110 |

Same assay, conditions: 30 nM; incubation time: 72 h

| SMILES | normalised viability |
| --- | --- |
| CS(=O)(=O)CCNCc1ccc(-c2ccc3ncnc(Nc4ccc(OCc5cccc(F)c5)c(Cl)c4)c3c2)o1 [Lapatinib] | 117% and 97.8% |
| COC1=C2C[C@@H](C)C[C@H](OC)[C@H](O)[C@@H](C)/C=C(\C)[C@H](OC(N)=O)[C@@H](OC)/C=C\C=C(/C)C(=O)NC(=CC1=O)C2=O [Geldanamycin] | 100% |
| c1ccc(C2CN3CCSC3=N2)cc1 (stereo unspecified) [Tetramisole] | 92.1% |
| COc1cc(Nc2ncc(F)c(Nc3ccc4c(n3)NC(=O)C(C)(C)O4)n2)cc(OC)c1OC [R406] | 107% |
| O=P(O)(NCCCl)NCCCl [Ifosfamide mustard] | 98.3% |

Same assay, conditions: 100 nM; incubation time: 72 h

| SMILES | normalised viability |
| --- | --- |
| CS(=O)(=O)CCNCc1ccc(-c2ccc3ncnc(Nc4ccc(OCc5cccc(F)c5)c(Cl)c4)c3c2)o1 [Lapatinib] | 112% and 102% |
| COC1=C2C[C@@H](C)C[C@H](OC)[C@H](O)[C@@H](C)/C=C(\C)[C@H](OC(N)=O)[C@@H](OC)/C=C\C=C(/C)C(=O)NC(=CC1=O)C2=O [Geldanamycin] | 95.4% |
| c1ccc(C2CN3CCSC3=N2)cc1 (stereo unspecified) [Tetramisole] | 89.6% |
| COc1cc(Nc2ncc(F)c(Nc3ccc4c(n3)NC(=O)C(C)(C)O4)n2)cc(OC)c1OC [R406] | 107% |
| O=P(O)(NCCCl)NCCCl [Ifosfamide mustard] | 105% |

System: CAL-120
Assay: as above
Conditions: 1 nM; incubation time: 72 h
How it was run: as §1

| SMILES | normalised viability [%] |
| --- | --- |
| CC(C)(C)c1cc(NC(=O)Nc2ccc(-c3cn4c(n3)sc3cc(OCCN5CCOCC5)ccc34)cc2)no1 [Quizartinib] | 93.8 |

Same assay, conditions: 10 nM; incubation time: 72 h

| SMILES | normalised viability |
| --- | --- |
| CS(=O)(=O)CCNCc1ccc(-c2ccc3ncnc(Nc4ccc(OCc5cccc(F)c5)c(Cl)c4)c3c2)o1 [Lapatinib] | 92.4% and 99.8% |
| COC1=C2C[C@@H](C)C[C@H](OC)[C@H](O)[C@@H](C)/C=C(\C)[C@H](OC(N)=O)[C@@H](OC)/C=C\C=C(/C)C(=O)NC(=CC1=O)C2=O [Geldanamycin] | 91% |
| c1ccc(C2CN3CCSC3=N2)cc1 (stereo unspecified) [Tetramisole] | 110% |
| COc1cc(Nc2ncc(F)c(Nc3ccc4c(n3)NC(=O)C(C)(C)O4)n2)cc(OC)c1OC [R406] | 90.6% |
| O=P(O)(NCCCl)NCCCl [Ifosfamide mustard] | 80.5% |

Same assay, conditions: 100 nM; incubation time: 72 h

| SMILES | normalised viability [%] |
| --- | --- |
| CC(C)(C)c1cc(NC(=O)Nc2ccc(-c3cn4c(n3)sc3cc(OCCN5CCOCC5)ccc34)cc2)no1 [Quizartinib] | 96.6 |

Same assay, conditions: 1000 nM; incubation time: 72 h

| SMILES | normalised viability |
| --- | --- |
| CC(C)(C)c1cc(NC(=O)Nc2ccc(-c3cn4c(n3)sc3cc(OCCN5CCOCC5)ccc34)cc2)no1 [Quizartinib] | 96.6% |
| CS(=O)(=O)CCNCc1ccc(-c2ccc3ncnc(Nc4ccc(OCc5cccc(F)c5)c(Cl)c4)c3c2)o1 [Lapatinib] | 92% and 102% |
| COC1=C2C[C@@H](C)C[C@H](OC)[C@H](O)[C@@H](C)/C=C(\C)[C@H](OC(N)=O)[C@@H](OC)/C=C\C=C(/C)C(=O)NC(=CC1=O)C2=O [Geldanamycin] | 13.6% |
| c1ccc(C2CN3CCSC3=N2)cc1 (stereo unspecified) [Tetramisole] | 112% |
| COc1cc(Nc2ncc(F)c(Nc3ccc4c(n3)NC(=O)C(C)(C)O4)n2)cc(OC)c1OC [R406] | 91.3% |
| O=P(O)(NCCCl)NCCCl [Ifosfamide mustard] | 85.6% |

Same assay, conditions: 10000 nM; incubation time: 72 h

| SMILES | normalised viability [%] |
| --- | --- |
| COC1=C2C[C@@H](C)C[C@H](OC)[C@H](O)[C@@H](C)/C=C(\C)[C@H](OC(N)=O)[C@@H](OC)/C=C\C=C(/C)C(=O)NC(=CC1=O)C2=O [Geldanamycin] | 6.18 |
| c1ccc(C2CN3CCSC3=N2)cc1 (stereo unspecified) [Tetramisole] | 105 |
| COc1cc(Nc2ncc(F)c(Nc3ccc4c(n3)NC(=O)C(C)(C)O4)n2)cc(OC)c1OC [R406] | 80.5 |
| O=P(O)(NCCCl)NCCCl [Ifosfamide mustard] | 89.5 |

System: HCC1143
Assay: as above
Conditions: 1 nM; incubation time: 72 h
How it was run: as §1

| SMILES | normalised viability [%] |
| --- | --- |
| CC(C)(C)c1cc(NC(=O)Nc2ccc(-c3cn4c(n3)sc3cc(OCCN5CCOCC5)ccc34)cc2)no1 [Quizartinib] | 94.3 |

Same assay, conditions: 10 nM; incubation time: 72 h

| SMILES | normalised viability |
| --- | --- |
| CS(=O)(=O)CCNCc1ccc(-c2ccc3ncnc(Nc4ccc(OCc5cccc(F)c5)c(Cl)c4)c3c2)o1 [Lapatinib] | 70.7% and 83.8% |
| COC1=C2C[C@@H](C)C[C@H](OC)[C@H](O)[C@@H](C)/C=C(\C)[C@H](OC(N)=O)[C@@H](OC)/C=C\C=C(/C)C(=O)NC(=CC1=O)C2=O [Geldanamycin] | 90.2% |
| c1ccc(C2CN3CCSC3=N2)cc1 (stereo unspecified) [Tetramisole] | 105% |
| COc1cc(Nc2ncc(F)c(Nc3ccc4c(n3)NC(=O)C(C)(C)O4)n2)cc(OC)c1OC [R406] | 81.2% |
| O=P(O)(NCCCl)NCCCl [Ifosfamide mustard] | 99.6% |

Same assay, conditions: 100 nM; incubation time: 72 h

| SMILES | normalised viability [%] |
| --- | --- |
| CC(C)(C)c1cc(NC(=O)Nc2ccc(-c3cn4c(n3)sc3cc(OCCN5CCOCC5)ccc34)cc2)no1 [Quizartinib] | 95.8 |

Same assay, conditions: 1000 nM; incubation time: 72 h

| SMILES | normalised viability |
| --- | --- |
| CC(C)(C)c1cc(NC(=O)Nc2ccc(-c3cn4c(n3)sc3cc(OCCN5CCOCC5)ccc34)cc2)no1 [Quizartinib] | 94.9% |
| CS(=O)(=O)CCNCc1ccc(-c2ccc3ncnc(Nc4ccc(OCc5cccc(F)c5)c(Cl)c4)c3c2)o1 [Lapatinib] | 76.2% and 89% |
| COC1=C2C[C@@H](C)C[C@H](OC)[C@H](O)[C@@H](C)/C=C(\C)[C@H](OC(N)=O)[C@@H](OC)/C=C\C=C(/C)C(=O)NC(=CC1=O)C2=O [Geldanamycin] | 38.3% |
| c1ccc(C2CN3CCSC3=N2)cc1 (stereo unspecified) [Tetramisole] | 118% |
| COc1cc(Nc2ncc(F)c(Nc3ccc4c(n3)NC(=O)C(C)(C)O4)n2)cc(OC)c1OC [R406] | 83.5% |
| O=P(O)(NCCCl)NCCCl [Ifosfamide mustard] | 99.8% |

Same assay, conditions: 10000 nM; incubation time: 72 h

| SMILES | normalised viability |
| --- | --- |
| CS(=O)(=O)CCNCc1ccc(-c2ccc3ncnc(Nc4ccc(OCc5cccc(F)c5)c(Cl)c4)c3c2)o1 [Lapatinib] | 71% and 82.7% |
| COC1=C2C[C@@H](C)C[C@H](OC)[C@H](O)[C@@H](C)/C=C(\C)[C@H](OC(N)=O)[C@@H](OC)/C=C\C=C(/C)C(=O)NC(=CC1=O)C2=O [Geldanamycin] | 24.9% |
